# Read-outs that look alike come from different tables or passages of the source.
# What was measured:
# Assay in all cases: HOTSPOT radiometric kinase assay
# LATS1 = target: T1, LATS1 (Homo sapiens, UniProt O95835); format: biochemical; conditions: 10 μM ATP
# T1 construct: purchased Reaction Biology Corp
# T1 sequence (O95835 1-1130): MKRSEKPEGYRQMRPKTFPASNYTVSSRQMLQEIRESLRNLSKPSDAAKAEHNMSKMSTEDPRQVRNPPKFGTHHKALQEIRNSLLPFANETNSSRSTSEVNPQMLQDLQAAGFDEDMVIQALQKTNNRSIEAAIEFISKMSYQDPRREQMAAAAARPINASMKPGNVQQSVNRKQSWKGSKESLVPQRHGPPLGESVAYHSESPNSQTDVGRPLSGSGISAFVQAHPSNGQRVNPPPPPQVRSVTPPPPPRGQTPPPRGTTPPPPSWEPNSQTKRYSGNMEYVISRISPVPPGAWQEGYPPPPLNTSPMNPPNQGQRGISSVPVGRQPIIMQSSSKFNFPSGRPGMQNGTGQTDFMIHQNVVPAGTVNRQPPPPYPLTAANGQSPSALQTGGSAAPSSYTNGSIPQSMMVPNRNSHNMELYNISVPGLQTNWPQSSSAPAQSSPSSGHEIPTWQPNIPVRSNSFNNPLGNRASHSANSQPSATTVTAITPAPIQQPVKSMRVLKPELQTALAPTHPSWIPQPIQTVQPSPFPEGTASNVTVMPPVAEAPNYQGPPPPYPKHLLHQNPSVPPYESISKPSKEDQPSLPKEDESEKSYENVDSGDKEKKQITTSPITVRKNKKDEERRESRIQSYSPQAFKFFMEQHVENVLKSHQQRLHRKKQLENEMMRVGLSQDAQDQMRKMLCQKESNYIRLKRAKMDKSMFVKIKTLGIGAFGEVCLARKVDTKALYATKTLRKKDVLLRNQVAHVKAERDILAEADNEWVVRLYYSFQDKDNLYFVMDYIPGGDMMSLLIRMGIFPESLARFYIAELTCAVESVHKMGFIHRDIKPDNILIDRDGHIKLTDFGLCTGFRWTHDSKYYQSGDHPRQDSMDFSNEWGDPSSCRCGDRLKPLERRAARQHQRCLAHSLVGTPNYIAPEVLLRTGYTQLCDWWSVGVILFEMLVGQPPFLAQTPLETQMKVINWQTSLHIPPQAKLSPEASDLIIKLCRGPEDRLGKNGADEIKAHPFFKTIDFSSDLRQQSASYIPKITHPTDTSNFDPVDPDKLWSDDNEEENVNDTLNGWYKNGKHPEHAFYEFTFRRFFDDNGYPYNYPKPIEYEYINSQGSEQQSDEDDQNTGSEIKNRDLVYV
# PKCv/PKD3 = target: T2, PKCv/PKD3 (Homo sapiens, UniProt O94806); format: biochemical
# T2 construct: purchased Reaction Biology Corp
# T2 sequence (O94806 1-890): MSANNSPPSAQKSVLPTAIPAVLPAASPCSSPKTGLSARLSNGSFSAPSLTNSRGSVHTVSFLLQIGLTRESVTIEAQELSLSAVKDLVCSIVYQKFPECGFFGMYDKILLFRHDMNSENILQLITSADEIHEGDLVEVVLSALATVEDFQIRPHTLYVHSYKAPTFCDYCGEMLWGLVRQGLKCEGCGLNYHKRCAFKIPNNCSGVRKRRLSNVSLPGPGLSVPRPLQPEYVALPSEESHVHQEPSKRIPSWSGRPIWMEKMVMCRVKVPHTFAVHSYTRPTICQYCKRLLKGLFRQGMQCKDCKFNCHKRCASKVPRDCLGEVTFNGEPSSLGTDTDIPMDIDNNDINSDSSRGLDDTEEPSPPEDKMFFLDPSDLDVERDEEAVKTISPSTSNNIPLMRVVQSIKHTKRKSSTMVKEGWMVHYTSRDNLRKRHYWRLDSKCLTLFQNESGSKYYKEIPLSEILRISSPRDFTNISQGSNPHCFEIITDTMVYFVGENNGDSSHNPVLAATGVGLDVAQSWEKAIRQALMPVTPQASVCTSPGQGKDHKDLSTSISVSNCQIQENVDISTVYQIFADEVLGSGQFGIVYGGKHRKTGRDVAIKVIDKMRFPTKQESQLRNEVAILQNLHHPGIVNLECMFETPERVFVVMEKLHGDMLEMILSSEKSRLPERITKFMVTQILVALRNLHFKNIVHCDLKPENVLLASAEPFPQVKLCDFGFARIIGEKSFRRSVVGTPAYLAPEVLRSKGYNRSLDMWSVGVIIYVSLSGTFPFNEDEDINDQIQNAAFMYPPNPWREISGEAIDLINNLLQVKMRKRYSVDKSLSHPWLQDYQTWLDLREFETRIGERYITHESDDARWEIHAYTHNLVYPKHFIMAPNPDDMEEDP
# DYRK1B = DYRK1B (Homo sapiens, UniProt Q9Y463); format: biochemical
# FLT3 = target: T3, FLT3 (Homo sapiens, UniProt P36888); format: biochemical
# T3 construct: purchased Reaction Biology Corp
# BMPR2 = target: T4, BMPR2 (Homo sapiens, UniProt Q13873); format: biochemical; conditions: 10 μM ATP
# T4 construct: purchased Reaction Biology Corp
# PKN1 = target: T5, PKN1 (Homo sapiens, UniProt Q16512); format: biochemical; conditions: 10 μM ATP
# T5 construct: purchased Reaction Biology Corp
# PKCη = target: T6, PKCη (Homo sapiens, UniProt P24723); format: biochemical
# T6 construct: purchased Reaction Biology Corp
# YSK1 = target: T7, YSK1 (Homo sapiens, UniProt O00506); format: biochemical; conditions: 50 nM, 10 μM ATP
# T7 construct: purchased Reaction Biology Corp
# MST3 = target: T8, MST3 (Homo sapiens, UniProt Q9Y6E0); format: biochemical; conditions: 10 μM ATP
# T8 construct: purchased Reaction Biology Corp
# DCAMKL1 = target: T9, DCAMKL1 (Homo sapiens, UniProt O15075); format: biochemical; conditions: 10 μM ATP
# T9 construct: purchased Reaction Biology Corp
# RSK2 = target: T10, RSK2 (Homo sapiens, UniProt P51812); format: biochemical; conditions: 10 μM ATP
# T10 construct: purchased Reaction Biology Corp
# GSK3β = GSK3β (Homo sapiens, UniProt P49841)
# Sequence of GSK3β (P49841 whole entry): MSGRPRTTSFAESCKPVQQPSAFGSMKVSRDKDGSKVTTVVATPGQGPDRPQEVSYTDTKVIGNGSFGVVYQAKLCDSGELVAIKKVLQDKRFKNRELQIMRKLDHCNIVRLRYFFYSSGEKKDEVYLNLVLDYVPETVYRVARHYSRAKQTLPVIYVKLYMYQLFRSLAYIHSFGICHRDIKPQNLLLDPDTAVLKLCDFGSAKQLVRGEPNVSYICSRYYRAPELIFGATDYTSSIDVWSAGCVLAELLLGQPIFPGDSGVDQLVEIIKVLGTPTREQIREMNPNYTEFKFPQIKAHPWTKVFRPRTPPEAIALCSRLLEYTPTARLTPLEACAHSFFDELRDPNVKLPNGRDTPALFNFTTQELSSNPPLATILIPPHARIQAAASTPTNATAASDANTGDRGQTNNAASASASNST
# T6 sequence (P24723 whole entry): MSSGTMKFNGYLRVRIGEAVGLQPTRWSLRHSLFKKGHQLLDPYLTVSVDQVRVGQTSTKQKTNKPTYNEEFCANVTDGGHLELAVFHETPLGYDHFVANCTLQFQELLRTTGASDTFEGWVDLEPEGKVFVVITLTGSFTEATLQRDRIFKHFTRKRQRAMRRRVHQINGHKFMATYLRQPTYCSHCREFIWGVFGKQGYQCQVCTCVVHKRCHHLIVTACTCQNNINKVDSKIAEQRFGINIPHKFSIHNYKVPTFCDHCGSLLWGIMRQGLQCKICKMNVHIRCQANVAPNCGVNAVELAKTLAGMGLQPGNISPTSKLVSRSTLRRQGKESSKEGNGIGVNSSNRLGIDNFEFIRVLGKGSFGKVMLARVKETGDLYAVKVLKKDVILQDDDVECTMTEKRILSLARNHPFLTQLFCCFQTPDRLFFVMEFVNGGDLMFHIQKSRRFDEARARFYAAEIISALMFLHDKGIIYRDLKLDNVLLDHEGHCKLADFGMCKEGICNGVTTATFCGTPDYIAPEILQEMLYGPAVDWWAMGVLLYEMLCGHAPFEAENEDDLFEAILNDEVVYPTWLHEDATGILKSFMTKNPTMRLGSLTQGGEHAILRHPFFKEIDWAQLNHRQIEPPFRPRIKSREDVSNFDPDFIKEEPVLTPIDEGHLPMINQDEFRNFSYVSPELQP
# Sequence of DYRK1B (Q9Y463 whole entry): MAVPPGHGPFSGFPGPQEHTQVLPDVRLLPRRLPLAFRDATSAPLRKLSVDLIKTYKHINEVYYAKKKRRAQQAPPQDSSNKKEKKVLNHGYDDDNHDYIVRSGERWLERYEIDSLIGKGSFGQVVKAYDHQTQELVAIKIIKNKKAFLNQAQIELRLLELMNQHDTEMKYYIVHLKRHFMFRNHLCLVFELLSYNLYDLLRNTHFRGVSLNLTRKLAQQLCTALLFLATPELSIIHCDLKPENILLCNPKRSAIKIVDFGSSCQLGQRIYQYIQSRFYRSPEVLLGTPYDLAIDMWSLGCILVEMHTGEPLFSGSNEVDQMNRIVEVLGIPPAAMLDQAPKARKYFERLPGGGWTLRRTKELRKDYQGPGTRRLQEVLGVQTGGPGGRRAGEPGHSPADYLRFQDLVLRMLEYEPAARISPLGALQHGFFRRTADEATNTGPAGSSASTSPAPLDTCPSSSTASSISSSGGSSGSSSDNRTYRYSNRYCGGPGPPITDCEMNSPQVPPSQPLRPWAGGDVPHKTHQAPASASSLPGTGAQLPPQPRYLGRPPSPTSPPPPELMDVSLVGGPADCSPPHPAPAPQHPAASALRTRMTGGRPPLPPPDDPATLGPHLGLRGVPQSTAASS
# T9 sequence (O15075 whole entry): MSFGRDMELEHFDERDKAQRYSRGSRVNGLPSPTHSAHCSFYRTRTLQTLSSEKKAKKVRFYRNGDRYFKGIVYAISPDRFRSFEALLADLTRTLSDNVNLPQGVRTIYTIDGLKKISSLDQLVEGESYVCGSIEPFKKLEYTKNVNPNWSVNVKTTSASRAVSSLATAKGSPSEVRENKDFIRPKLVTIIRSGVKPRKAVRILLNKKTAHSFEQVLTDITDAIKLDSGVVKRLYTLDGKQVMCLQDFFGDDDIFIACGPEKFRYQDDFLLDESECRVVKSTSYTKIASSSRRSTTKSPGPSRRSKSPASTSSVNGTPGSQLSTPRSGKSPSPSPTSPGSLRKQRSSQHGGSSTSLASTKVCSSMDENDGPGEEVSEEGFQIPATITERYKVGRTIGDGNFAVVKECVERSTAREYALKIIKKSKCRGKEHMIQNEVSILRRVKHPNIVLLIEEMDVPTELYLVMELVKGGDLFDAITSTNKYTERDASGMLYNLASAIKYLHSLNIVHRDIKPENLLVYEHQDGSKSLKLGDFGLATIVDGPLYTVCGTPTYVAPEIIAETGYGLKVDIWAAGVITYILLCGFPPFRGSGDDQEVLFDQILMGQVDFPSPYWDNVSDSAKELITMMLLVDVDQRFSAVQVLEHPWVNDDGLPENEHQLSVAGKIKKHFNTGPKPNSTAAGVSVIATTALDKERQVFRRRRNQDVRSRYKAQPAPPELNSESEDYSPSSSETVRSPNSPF
# T3 sequence (P36888 27-993): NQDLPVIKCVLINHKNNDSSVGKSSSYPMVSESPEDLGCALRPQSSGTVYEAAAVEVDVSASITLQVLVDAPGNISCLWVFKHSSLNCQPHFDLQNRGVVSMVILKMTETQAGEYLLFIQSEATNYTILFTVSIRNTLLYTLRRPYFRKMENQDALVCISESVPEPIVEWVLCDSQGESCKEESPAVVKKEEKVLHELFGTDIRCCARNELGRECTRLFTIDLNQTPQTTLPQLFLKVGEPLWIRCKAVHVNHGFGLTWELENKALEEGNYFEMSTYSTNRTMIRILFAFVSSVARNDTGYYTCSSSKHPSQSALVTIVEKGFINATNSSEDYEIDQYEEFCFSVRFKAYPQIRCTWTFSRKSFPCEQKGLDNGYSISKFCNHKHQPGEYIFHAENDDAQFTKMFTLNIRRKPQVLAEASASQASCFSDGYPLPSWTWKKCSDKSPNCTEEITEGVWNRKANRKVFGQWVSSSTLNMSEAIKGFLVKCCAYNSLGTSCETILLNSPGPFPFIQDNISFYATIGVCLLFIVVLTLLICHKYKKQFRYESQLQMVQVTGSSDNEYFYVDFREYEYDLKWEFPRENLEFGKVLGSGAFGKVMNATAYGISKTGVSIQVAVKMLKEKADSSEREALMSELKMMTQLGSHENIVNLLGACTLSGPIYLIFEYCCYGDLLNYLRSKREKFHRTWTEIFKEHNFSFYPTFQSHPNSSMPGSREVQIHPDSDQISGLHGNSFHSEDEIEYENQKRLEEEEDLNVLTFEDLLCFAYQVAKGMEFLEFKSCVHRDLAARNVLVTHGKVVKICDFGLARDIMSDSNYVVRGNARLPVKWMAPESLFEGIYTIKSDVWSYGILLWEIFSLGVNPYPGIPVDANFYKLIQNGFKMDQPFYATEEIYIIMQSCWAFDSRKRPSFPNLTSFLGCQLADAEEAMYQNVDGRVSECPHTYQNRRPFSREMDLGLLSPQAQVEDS
# T10 sequence (P51812 whole entry): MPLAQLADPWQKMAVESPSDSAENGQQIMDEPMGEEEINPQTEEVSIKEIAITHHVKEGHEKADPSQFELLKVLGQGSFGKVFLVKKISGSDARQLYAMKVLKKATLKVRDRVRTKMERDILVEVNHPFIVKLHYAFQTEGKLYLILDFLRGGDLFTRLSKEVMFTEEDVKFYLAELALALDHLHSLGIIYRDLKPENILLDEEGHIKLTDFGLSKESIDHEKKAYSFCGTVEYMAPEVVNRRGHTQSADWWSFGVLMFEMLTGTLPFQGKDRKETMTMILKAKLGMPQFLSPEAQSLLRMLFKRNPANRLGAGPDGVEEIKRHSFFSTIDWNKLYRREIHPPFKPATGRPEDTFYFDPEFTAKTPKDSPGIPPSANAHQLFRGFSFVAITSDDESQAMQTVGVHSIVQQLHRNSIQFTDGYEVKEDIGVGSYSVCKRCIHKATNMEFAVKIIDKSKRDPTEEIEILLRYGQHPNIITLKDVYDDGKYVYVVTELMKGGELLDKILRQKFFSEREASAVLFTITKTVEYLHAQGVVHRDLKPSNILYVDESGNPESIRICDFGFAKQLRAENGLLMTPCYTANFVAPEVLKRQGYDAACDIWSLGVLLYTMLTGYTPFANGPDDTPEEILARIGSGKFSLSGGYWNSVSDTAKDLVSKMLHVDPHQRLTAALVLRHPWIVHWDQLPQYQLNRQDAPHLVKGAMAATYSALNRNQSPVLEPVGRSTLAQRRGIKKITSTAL
# T8 sequence (Q9Y6E0 whole entry): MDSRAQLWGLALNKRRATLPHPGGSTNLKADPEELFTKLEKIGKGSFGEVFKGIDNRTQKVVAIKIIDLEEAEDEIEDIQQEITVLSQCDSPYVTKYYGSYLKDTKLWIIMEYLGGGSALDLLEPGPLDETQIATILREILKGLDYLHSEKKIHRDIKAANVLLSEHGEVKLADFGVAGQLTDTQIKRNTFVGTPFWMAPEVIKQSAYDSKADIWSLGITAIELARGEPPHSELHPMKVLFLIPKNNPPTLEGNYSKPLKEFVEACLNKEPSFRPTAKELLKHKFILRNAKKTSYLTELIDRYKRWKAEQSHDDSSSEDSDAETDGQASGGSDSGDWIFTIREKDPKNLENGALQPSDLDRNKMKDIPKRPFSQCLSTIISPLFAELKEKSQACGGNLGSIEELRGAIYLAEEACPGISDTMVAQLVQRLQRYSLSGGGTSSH
# T7 sequence (O00506 whole entry): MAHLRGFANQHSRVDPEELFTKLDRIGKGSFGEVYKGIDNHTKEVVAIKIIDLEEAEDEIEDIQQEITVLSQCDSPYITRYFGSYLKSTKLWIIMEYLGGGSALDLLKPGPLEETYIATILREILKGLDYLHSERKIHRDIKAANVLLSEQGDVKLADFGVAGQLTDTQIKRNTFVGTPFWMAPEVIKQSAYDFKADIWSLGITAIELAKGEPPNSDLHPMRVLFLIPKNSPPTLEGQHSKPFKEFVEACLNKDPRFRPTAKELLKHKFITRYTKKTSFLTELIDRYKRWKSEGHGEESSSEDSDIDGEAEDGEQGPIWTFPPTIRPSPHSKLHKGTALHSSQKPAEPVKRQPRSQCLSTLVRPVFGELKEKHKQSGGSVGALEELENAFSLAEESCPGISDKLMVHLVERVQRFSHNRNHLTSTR
structure (smiles),measurement,setting,value
"Cn1cncc1C1=CN(c2ncnc3nc[nH]c23)CCS1 [Compound 1, Aplithianine A]",inhibition at 0.05 µM,LATS1; 50 nM,35%
same,inhibition at 2 µM,LATS1; 2 μM,96.1%
same,inhibition at 0.05 µM,"PKCv/PKD3; 50 nM, 10 μM ATP",25%
same,inhibition at 2 µM,"PKCv/PKD3; 2 μM, 10 μM ATP",88.9%
same,IC50,"PKCv/PKD3; 10 μM ATP, read-out: PKCv/PKD3 IC50",130 nM
same,PKCnu Differential (as compared to PKG1a),PKCv/PKD3; IC50 (kinase)/IC50 (PKG1a),11.92
same,IC50,"PKCv/PKD3; Table 4 dose-response, read-out: PKCnu IC50 Values",136 nM
same,inhibition at 0.05 µM,"DYRK1B; 50 nM, 10 μM ATP",22.7%
same,inhibition at 2 µM,"DYRK1B; 2 μM, 10 μM ATP",95.3%
same,IC50,"DYRK1B; 10 μM ATP, read-out: DYRK1B IC50",134 nM
same,DYRK1B Differential (as compared to PKG1a),DYRK1B; IC50 (kinase)/IC50 (PKG1a),11.87
same,IC50,"DYRK1B; Table 4 dose-response, read-out: DYRK1B IC50 Values",135 nM
same,inhibition at 0.05 µM,"FLT3; 50 nM, 10 μM ATP",22.2%
same,inhibition at 2 µM,FLT3; read-out: FLT3 % inhibition,88.1%
same,inhibition at 0.05 µM,BMPR2; 50 nM,21.3%
same,inhibition at 2 µM,BMPR2; 2 μM,74%
same,inhibition at 0.05 µM,PKN1; 50 nM,18.8%
same,inhibition at 2 µM,PKN1; 2 μM,87.7%
same,inhibition at 0.05 µM,"PKCη; 50 nM, 10 μM ATP",15.8%
same,inhibition at 2 µM,"PKCη; 2 μM, 10 μM ATP",83.6%
same,IC50,"PKCη; 10 μM ATP, read-out: PKCη IC50",202 nM
same,PKCeta Differential (as compared to PKG1a),PKCη; IC50 (kinase)/IC50 (PKG1a),16.08
same,IC50,"PKCη; Table 4 dose-response, read-out: PKCeta IC50 Values",183 nM
same,inhibition at 0.05 µM,YSK1,13.5%
same,inhibition at 0.05 µM,MST3; 50 nM,13.2%
same,inhibition at 2 µM,MST3; 2 μM,-15.6%
same,inhibition at 0.05 µM,DCAMKL1; 50 nM,12.8%
same,inhibition at 2 µM,DCAMKL1; 2 μM,14.2%
same,inhibition at 0.05 µM,RSK2; 50 nM,12.3%
same,inhibition at 2 µM,RSK2; 2 μM,66%
same,IC50,GSK3β,43 to 189 nM
same,IC50,"GSK3β; read-out: GSK3β IC50, 10 μM ATP",99 nM
